Experimental data published in patent US20250296971A1, “GASTRIC INHIBITORY PEPTIDE RECEPTOR LIGANDS” (priority 2021, published 2025).
Read-outs that look alike come from different tables or passages of the source. *1 amine or outer side, *2 acyl side, *3 side chain or, on linkers, in order; H or OH if unused. Where a SMILES comes first, the peptide text is derived from it. Bridges are numbered along the chain shown (N, C = ends). Side-chain parts run from the residue outwards. [ ]: non-standard residue; d: D form. The star is where a group is joined. X3 = O=C(O)CN1CCN(CC(=O)O)CCN(CC(=O)NCCCOCCOCCOCCCN*)CCN(CC(=O)O)CC1; NH(1-deoxy-D-glucityl) = OC[C@@H](O)[C@@H](O)[C@H](O)[C@@H](O)CN*; Pro(trans-4-NH2) = O=C([C@@H]1C[C@@H](N[*:3])CN1[*:1])[*:2]; DOTA = O=C(O)CN1CCN(CC(=O)O)CCN(CC(=O)*)CCN(CC(=O)O)CC1; Pro(cis-4-NHAc) = CC(=O)N[C@@H]1CN[C@H](C(=O)O)C1; Trp(5-Cl) = N[C@@H](Cc1c[nH]c2ccc(Cl)cc12)C(=O)O; Pyridine(2,6-diCH2) = c1cc(C[*:1])nc(C[*:2])c1; X10 = O=C(CN(CC(=O)NC(CO)CO)CC(=O)*)NC(CO)CO; Pro(4R-NH2) = N[C@H]1CN[C@H](C(=O)O)C1; X4 = O=C(NCCN[*:2])c1cccc(C[*:1])c1; Glutaryl = O=C(CCCC(=O)[*:2])[*:1]; X7 = c1cc(CSCCN[*:2])cc(C[*:1])c1; Hyp = O=C(O)[C@@H]1C[C@@H](O)CN1; X1 = O=C(CN1CCC(N[*:1])CC1)[*:2]; Suc = O=C(CCC(=O)[*:2])[*:1]; hLys = NCCCCC[C@H](N)C(=O)O; hSer = N[C@@H](CCO)C(=O)O; NHCH(CH2OH)2 = OCC(CO)N*; dDap = NC[C@@H](N)C(=O)O; Api = NC1(C(=O)O)CCNCC1; Thp = NC1(C(=O)O)CCOCC1; Aib = CC(C)(N)C(=O)O

Experiments:
[1] = biological target: T1, human GIP receptor (bioGIPR) (Homo sapiens, UniProt P48546); test: Surface plasmon resonance (SPR) based binding assay; details: Single Cycle Kinetic mode, 25° C.; for t1/2 Category: SPR dissociation half-life; for Kd: SPR, 1:1 Langmuir binding model, read-out: pKD Category (converted)
T1 construct: Biotinylate extracellular of the human GIP receptor (bioGIPR, Proteros biostructures GmbH, lot #02/2b); purchased Proteros biostructures GmbH lot #02/2b
T1 sequence (P48546 22-138 limits assumed): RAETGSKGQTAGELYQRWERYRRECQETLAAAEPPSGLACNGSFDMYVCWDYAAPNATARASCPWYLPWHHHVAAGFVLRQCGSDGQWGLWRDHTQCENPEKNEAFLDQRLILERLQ
Method in brief: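 Binding was measured at 25 °C by single-cycle kinetics against a reference flow cell, with blank-run and drift correction, after capturing biotinylated GIPR extracellular domain to ~3500 RU. Running buffer: HBST, 0.1% DMSO. A 1:1 Langmuir model gave kinetic rates, KD, t1/2 and pKD.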

[2] = biological target: T2, GIPR (CHO-K1-hGIPR cells) (Homo sapiens, UniProt P48546); test: FACS binding assay; details: read-out: pIC50 Category (converted)
T2 construct: host or cells: CHO-K1
T2 sequence (P48546 22-466): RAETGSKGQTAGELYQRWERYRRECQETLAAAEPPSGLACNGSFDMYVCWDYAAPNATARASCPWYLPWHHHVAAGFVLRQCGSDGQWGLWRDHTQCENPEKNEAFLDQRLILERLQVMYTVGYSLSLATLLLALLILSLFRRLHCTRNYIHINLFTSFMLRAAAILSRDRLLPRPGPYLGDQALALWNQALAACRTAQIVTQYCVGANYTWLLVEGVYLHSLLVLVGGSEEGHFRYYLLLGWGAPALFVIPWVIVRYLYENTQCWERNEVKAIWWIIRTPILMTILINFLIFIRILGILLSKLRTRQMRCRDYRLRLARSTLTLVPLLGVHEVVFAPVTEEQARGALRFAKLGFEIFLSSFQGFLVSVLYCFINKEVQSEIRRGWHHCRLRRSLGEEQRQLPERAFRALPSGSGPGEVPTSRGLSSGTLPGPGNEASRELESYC
Method in brief: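 Median fluorescence in the APC channel, measured on washed CHO-K1 cells overexpressing human GIPR, was fitted by four-parameter logistic regression against peptide concentration to yield EC50 or IC50 values. Secondary labelling used APC-streptavidin (1 μg/mL, 30 min, ice).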

[3] = competition with 20 nM GIP-057, 4° C., 1 hour
[4] = competition with 20 nM GIP-057, 4° C. for 1 hour

t1/2 Category [1]	Kd [1]	IC50 [2, 3]	IC50 [2, 4]	SMILES
A (t1/2 values>15 min)	< 1 nM	< 10 nM	–	CC[C@H](C)[C@@H]1NC(=O)[C@H](CC(C)C)NC(=O)C2(CCN(C(=O)CN3CCN(CC(=O)O)CCN(CC(=O)O)CCN(CC(=O)O)CC3)CC2)NC(=O)[C@@H](NC(=O)[C@@H](CC(C)C)NC(=O)[C@H](CCC(=O)O)NC(=O)[C@@H]2C[C@@H](NC(=O)CCCC(=O)NC[C@H](O)[C@@H](O)[C@H](O)[C@H](O)CO)CN2C(=O)[C@H](Cc2c[nH]c3ccc(Cl)cc23)NC(=O)[C@H](Cc2c[nH]c3ccccc23)NC(=O)[C@H](CC(=O)O)NC(=O)CN2CCC(NC(=O)CCCC(=O)NC[C@H](O)[C@@H](O)[C@H](O)[C@H](O)CO)CC2)CSCc2cccc(n2)CSC[C@@H](C(=O)NC2CCN(CC(=O)N[C@H](CCC(=O)NC[C@H](O)[C@@H](O)[C@H](O)[C@H](O)CO)C(N)=O)CC2)NC1=O [GIP-006, AGLU-Glutar-APAc-Asp-Trp-5Clw-Tap(AGLU-Glutar)-Glu-leu-[Cys(2Lut)-Apc(DOTA)-Leu-Ile-Cys]-APAc-glu(AGLU)-NH2] ({NH(1-deoxy-D-glucityl)-Glutaryl}-[X1]DW[Trp(5-Cl)][Pro(trans-4-NH2)]([Glutaryl-NH(1-deoxy-D-glucityl)])E[dL]C[Api](DOTA)LIC[X1][dE](NH(1-deoxy-D-glucityl))-NH2; linker 8-12 via Pyridine(2,6-diCH2))
A (t1/2 values>15 min)	< 1 nM	< 10 nM	–	CC[C@H](C)[C@@H]1NC(=O)[C@H](CC(C)C)NC(=O)C2(CCN(C(=O)CN3CCN(CC(=O)O)CCN(CC(=O)O)CCN(CC(=O)O)CC3)CC2)NC(=O)[C@@H](NC(=O)[C@@H](CC(C)C)NC(=O)[C@H](CCC(=O)O)NC(=O)[C@@H]2C[C@@H](O)CN2C(=O)[C@H](Cc2c[nH]c3ccc(Cl)cc23)NC(=O)[C@H](Cc2c[nH]c3ccccc23)NC(=O)[C@H](CC(=O)O)NC(=O)CN2CCC(NC(=O)CCCC(=O)NC[C@H](O)[C@@H](O)[C@H](O)[C@H](O)CO)CC2)CSCc2cccc(n2)CSC[C@@H](C(=O)NC2CCN(CC(=O)N[C@H](CCC(=O)NC[C@H](O)[C@@H](O)[C@H](O)[C@H](O)CO)C(N)=O)CC2)NC1=O [GIP-011, AGLU-Glutar-APAc-Asp-Trp-5Clw-Hyp-Glu-leu-[Cys(2Lut)-Apc(DOTA)-Leu-Ile-Cys]-APAc-glu(AGLU)-NH2] ({NH(1-deoxy-D-glucityl)-Glutaryl}-[X1]DW[Trp(5-Cl)][Hyp]E[dL]C[Api](DOTA)LIC[X1][dE](NH(1-deoxy-D-glucityl))-NH2; linker 8-12 via Pyridine(2,6-diCH2))
C (t1/2 between 5 min and 2.1 min)	1 to 7.94 nM	–	10 to 79.4 nM	CC[C@H](C)[C@@H]1NC(=O)[C@H](CC(C)C)NC(=O)C(C)(C)NC(=O)[C@@H](NC(=O)[C@@H](CC(C)C)NC(=O)[C@H](CCC(=O)O)NC(=O)[C@@H]2CCCN2C(=O)[C@H](Cc2c[nH]c3ccc(Cl)cc23)NC(=O)[C@H](Cc2c[nH]c3ccccc23)NC(=O)[C@H](CC(=O)O)NC(=O)CCC(=O)NCCCOCCOCCOCCCNC(=O)CN2CCN(CC(=O)O)CCN(CC(=O)O)CCN(CC(=O)O)CC2)CSCc2cccc(c2)C(=O)NCCNC1=O [GIP-359, DOTA-Ttds-Asp-Trp-5Clw-Pro-Glu-leu-[Cys(3CbBn)-Aib-Leu-Ile-en]] ({X3-Suc}-DW[Trp(5-Cl)]PE[dL]C[Aib]LI; linker 7-C via X4)
A (t1/2 values>15 min)	1 to 7.94 nM	< 10 nM	–	CC[C@H](C)[C@@H]1NC(=O)[C@H](CC(C)C)NC(=O)C(C)(C)NC(=O)[C@@H](NC(=O)[C@@H](CC(C)C)NC(=O)[C@H](CCC(=O)O)NC(=O)[C@@H]2C[C@H](NC(C)=O)CN2C(=O)[C@H](Cc2c[nH]c3ccc(Cl)cc23)NC(=O)[C@H](Cc2c[nH]c3ccccc23)NC(=O)[C@H](CC(=O)O)NC(=O)CCC(=O)NCCCOCCOCCOCCCNC(=O)CN2CCN(CC(=O)O)CCN(CC(=O)O)CCN(CC(=O)O)CC2)CSCc2cccc(c2)CSCCNC1=O [GIP-111, DOTA-Ttds-Asp-Trp-5Clw-4Ap(Ac)-Glu-leu-[Cys(3MeBn)-Aib-Leu-Ile-AET]] ({X3-Suc}-DW[Trp(5-Cl)][Pro(cis-4-NHAc)]E[dL]C[Aib]LI; linker 7-C via X7)
A (t1/2 values>15 min)	< 1 nM	–	< 10 nM	CC[C@H](C)[C@@H]1NC(=O)[C@H](CC(C)C)NC(=O)C2(CCN(C(=O)CN3CCN(CC(=O)O)CCN(CC(=O)O)CCN(CC(=O)O)CC3)CC2)NC(=O)[C@@H](NC(=O)[C@@H](CC(C)C)NC(=O)[C@H](CCC(=O)O)NC(=O)[C@@H]2C[C@@H](N)CN2C(=O)[C@H](Cc2c[nH]c3ccc(Cl)cc23)NC(=O)[C@H](Cc2c[nH]c3ccccc23)NC(=O)[C@H](CC(=O)O)NC(=O)CCCC(=O)NC[C@H](O)[C@@H](O)[C@H](O)[C@H](O)CO)CSCc2cccc(n2)CSC[C@@H](C(=O)NC2CCN(CC(=O)N[C@H](CCC(=O)NC(CO)CO)C(=O)NC(CO)CO)CC2)NC1=O [GIP-372, AGLU-Glutar-Asp-Trp-5Clw-Tap-Glu-leu-[Cys(2Lut)-Apc(DOTA)-Leu-Ile-Cys]-APAc-GLUSEROL] ({NH(1-deoxy-D-glucityl)-Glutaryl}-DW[Trp(5-Cl)][Pro(4R-NH2)]E[dL]C[Api](DOTA)LIC[X1][dE](NHCH(CH2OH)2)-{NHCH(CH2OH)2}; linker 7-11 via Pyridine(2,6-diCH2))
A (t1/2 values>15 min)	< 1 nM	–	< 10 nM	CC[C@H](C)[C@@H]1NC(=O)[C@H](CC(C)C)NC(=O)C2(CCN(C(=O)CN3CCN(CC(=O)O)CCN(CC(=O)O)CCN(CC(=O)O)CC3)CC2)NC(=O)[C@@H](NC(=O)[C@@H](CC(C)C)NC(=O)[C@H](CCC(=O)O)NC(=O)[C@@H]2C[C@@H](N)CN2C(=O)[C@H](Cc2c[nH]c3ccc(Cl)cc23)NC(=O)[C@H](Cc2c[nH]c3ccccc23)NC(=O)[C@H](CC(=O)O)NC(=O)CN(CC(=O)NC(CO)CO)CC(=O)NC(CO)CO)CSCc2cccc(n2)CSC[C@@H](C(=O)NC2CCN(CC(=O)N[C@H](CNC(=O)CN(CC(=O)NC(CO)CO)CC(=O)NC(CO)CO)C(N)=O)CC2)NC1=O [GIP-373, NTASEROL-Asp-Trp-5Clw-Tap-Glu-leu-[Cys(2Lut)-Apc(DOTA)-Leu-Ile-Cys]-APAc-dap(NTASEROL)-NH2] (X10-DW[Trp(5-Cl)][Pro(4R-NH2)]E[dL]C[Api](DOTA)LIC[X1][dDap](X10)-NH2; linker 7-11 via Pyridine(2,6-diCH2))
A (t1/2 values>15 min)	1 to 7.94 nM	–	< 10 nM	CC[C@H](C)[C@@H]1NC(=O)[C@H](CC(C)C)NC(=O)C2(CCOCC2)NC(=O)[C@@H](NC(=O)[C@@H](CC(C)C)NC(=O)[C@H](CCCCCN)NC(=O)[C@@H]2C[C@@H](O)CN2C(=O)[C@H](Cc2c[nH]c3ccc(Cl)cc23)NC(=O)[C@H](Cc2c[nH]c3ccccc23)NC(=O)[C@H](CC(=O)O)NC(C)=O)CSCc2cccc(n2)CSC[C@@H](C(N)=O)NC1=O [GIP-378, Ac-Asp-Trp-5Clw-Hyp-Hly-leu-[Cys(2Lut)-Thp-Leu-Ile-Cys]-NH2] (Ac-DW[Trp(5-Cl)][Hyp][hLys][dL]C[Thp]LIC-NH2; linker 7-11 via Pyridine(2,6-diCH2))
A (t1/2 values>15 min)	< 1 nM	< 10 nM	–	CC[C@H](C)[C@@H]1NC(=O)[C@H](CC(C)C)NC(=O)C2(CCOCC2)NC(=O)[C@@H](NC(=O)[C@@H](CC(C)C)NC(=O)[C@H](CCO)NC(=O)[C@@H]2C[C@@H](O)CN2C(=O)[C@H](Cc2c[nH]c3ccc(Cl)cc23)NC(=O)[C@H](Cc2c[nH]c3ccccc23)NC(=O)[C@H](CC(=O)O)NC(C)=O)CSCc2cccc(n2)CSC[C@@H](C(N)=O)NC1=O [GIP-194, Ac-Asp-Trp-5Clw-Hyp-Hse-leu-[Cys(2Lut)-Thp-Leu-Ile-Cys]-NH2] (Ac-DW[Trp(5-Cl)][Hyp][hSer][dL]C[Thp]LIC-NH2; linker 7-11 via Pyridine(2,6-diCH2))
A (t1/2 values>15 min)	< 1 nM	< 10 nM	–	CC[C@H](C)[C@@H]1NC(=O)[C@H](CC(C)C)NC(=O)C2(CCNCC2)NC(=O)[C@@H](NC(=O)[C@@H](CC(C)C)NC(=O)[C@H](CCC(=O)O)NC(=O)[C@@H]2C[C@@H](N)CN2C(=O)[C@H](Cc2c[nH]c3ccc(Cl)cc23)NC(=O)[C@H](Cc2c[nH]c3ccccc23)NC(=O)[C@H](CC(=O)O)NC(=O)CCC(=O)NCCCOCCOCCOCCCNC(=O)CN2CCN(CC(=O)O)CCN(CC(=O)O)CCN(CC(=O)O)CC2)CSCc2cccc(c2)CSCCNC1=O [GIP-112, DOTA-Ttds-Asp-Trp-5Clw-Tap-Glu-leu-[Cys(2Lut)-Apc-Leu-Ile-AET]] ({X3-Suc}-DW[Trp(5-Cl)][Pro(4R-NH2)]E[dL]C[Api]LI; linker 7-C via X7)
